Assay results from patent US20250387375A1, “SOFALCONE DERIVATIVES AND MEDICAL USE THEREOF” (KAOHSIUNG MEDICAL UNIVERSITY, priority 2024, published 2025).

System: human platelet suspension (platelet aggregation caused by collagen)
Experiment: Platelet aggregation reaction test, collagen-induced
Format: cell-based
Conditions: read-out: Collagen IC 50
Description: (§1) Blood samples were collected from healthy donors, and acid-citrate-dextrose (ACD) solution was used as an anticoagulant. The blood samples were centrifuged to obtain platelets, and residual plasma was removed by washing to prepare platelet suspension.
(§2) In the experimental method, a platelet aggregometer (Chrono-Log Co., Havertown, PA, USA) was used for tests. The compound to be tested was added to the platelet suspension and reacted for 3 minutes at 37° C. with stirring (1200 rpm). Then, platelet stimulator U46619 or collagen was added to initiate platelet aggregation, and the test time was 5 minutes. The principle of the platelet aggregation test was: when platelets were stimulated to induce aggregation reaction, the light transmission of the platelet suspension would increase; by calculating changes in light transmission of the platelet suspension before and after being stimulated, the percentage of platelet aggregation could be obtained.

SMILES | IC50 [µM]
CCCCOc1ccc(C=CC(=O)c2ccc(OCCCC)cc2OCC(=O)OC)cc1 [Compound 90] | > 100
CCOC(=O)COc1cc(O)ccc1C(=O)C=Cc1cccc(O)c1 [Compound 40] | 10.3
CCCCCCCCCCOc1ccc(C=CC(=O)c2ccc(OCCCCCCCCCC)cc2OCC(=O)O)cc1 [Compound 97] | > 50
O=C(O)CCCOc1cc(O)ccc1C(=O)C=Cc1ccc(O)cc1 [Compound 70] | 6.55
CC(C)=CCOc1ccc(C(=O)/C=C/c2ccccc2OCC=C(C)C)c(OCC(=O)O)c1 [Compound 19] | 15.2
CCOC(=O)COc1ccccc1C(=O)C=Cc1ccco1 [Compound 65] | 3.13
CCOC(=O)CCCCCOc1ccccc1C(=O)C=Cc1cccc(F)c1 [Compound 39] | 0.07
CC(C)=CCOc1ccc(C(=O)/C=C/c2ccc(OCC=C(C)C)c(OCC=C(C)C)c2)c(OCC(=O)O)c1 [Compound 21] | 29.7
CC(C)=CCOc1ccc(C(=O)/C=C/c2ccc([N+](=O)[O-])cc2)c(OCC(=O)O)c1 [Compound 25] | 49.2
CC(=O)Nc1ccc(/C=C/C(=O)c2ccc(OCC=C(C)C)cc2OCC(=O)O)cc1 [Compound 26] | 40.8
COC(=O)COc1cc(OCc2ccc(OC)cc2)ccc1C(=O)C=Cc1ccc(OCc2ccc(OC)cc2)cc1 [Compound 87] | > 100
O=C(O)COc1ccccc1C(=O)C=Cc1ccco1 [Compound 56] | 38.3
O=C(O)CCCCCOc1ccccc1C(=O)CCc1ccccc1 [Compound 116] | 4.46
O=C(O)CCCCCOc1ccccc1C(=O)C=Cc1ccco1 [Compound 52] | 0.56
COC(=O)CCCOc1cc(OCC=C(C)C)ccc1C(=O)CCc1ccc(OCC=C(C)C)cc1 [Compound 73] | 62.9
CCOC(=O)CCCCCCOc1ccccc1C(=O)C=Cc1ccccc1 [Compound 104] | 5.31
CCOC(=O)COc1ccc(C=CC(=O)c2ccc(OCC(=O)OCC)cc2OCC(=O)OC)cc1 [Compound 83] | 8.31
O=C(O)COc1ccccc1C(=O)C=Cc1cccnc1 [Compound 60] | 39.8

SMILES | IC50 [µM]
O=C(O)COc1ccccc1C(=O)C=Cc1cccs1 [Compound 57] | 15.5
CCOC(=O)CCCCCOc1ccccc1C(=O)C=Cc1ccco1 [Compound 62] | 0.58
CC(C)=CCOc1ccc(C(=O)/C=C/c2ccc(Cl)cc2)c(OCC(=O)O)c1 [Compound 24] | 67.6
CCOC(=O)COc1ccccc1C(=O)C=Cc1ccccc1 [Compound 108] | 3.67
O=C(O)CCCCCOc1ccccc1C(=O)C=Cc1ccccc1 [Compound 36] | 0.13
CCOC(=O)CCCOc1cc(OCC=C(C)C)ccc1C(=O)C=Cc1cccs1 [Compound 64] | 3.85
CCOC(=O)COc1ccccc1C(=O)C=Cc1ccc(Br)s1 [Compound 67] | 5.35
CC(C)=CCOc1ccc(C=CC(=O)c2ccccc2OCCCCC(=O)O)cc1 [Compound 102] | 3.14
O=C(O)CCCCCOc1ccccc1C(=O)C=Cc1ccccc1 [Compound 77] | 43.6
O=C(O)CCCCCOc1cc(F)ccc1C(=O)/C=C/c1ccccc1 [Compound 11] | 5.38
CC(C)=CCOc1ccc(C=CC(=O)c2ccc(OCC=C(C)C)cc2OCCCCCC(=O)O)cc1 [Compound 32] | 12.8
CC(C)=CCOc1ccc(C=CC(=O)c2ccc(OCC=C(C)C)cc2OCCCCC(=O)O)cc1 [Compound 37] | 1.58
CC(C)=CCOc1ccc(CCC(=O)c2ccc(OCC=C(C)C)cc2OCCCC(=O)O)cc1 [Compound 75] | 1.3
CCOC(=O)COc1cc(O)ccc1C(=O)C=Cc1ccc(Cl)cc1 [Compound 44] | 8.92
COC(=O)COc1cc(OCC=C(C)C)ccc1C(=O)C=Cc1ccc(OCC=C(C)C)cc1 [Compound 68] | > 100
CCOC(=O)CCCCCOc1ccccc1C(=O)C=Cc1ccccc1F [Compound 38] | 0.07
CCOC(=O)COc1ccccc1C(=O)C=Cc1ccc(O)cc1 [Compound 47] | 16.4

System: human platelet suspension (platelet aggregation caused by TxA2 agonist U46619)
Experiment: Platelet aggregation reaction test, U46619-induced
Format: cell-based
Conditions: not given
Description: as §1, §2

SMILES | IC50 [µM]
CCCCOc1ccc(C=CC(=O)c2ccc(OCCCC)cc2OCC(=O)OC)cc1 [Compound 90] | > 100
CCOC(=O)COc1cc(O)ccc1C(=O)C=Cc1cccc(O)c1 [Compound 40] | 25.9
CCCCCCCCCCOc1ccc(C=CC(=O)c2ccc(OCCCCCCCCCC)cc2OCC(=O)O)cc1 [Compound 97] | > 50
O=C(O)CCCOc1cc(O)ccc1C(=O)C=Cc1ccc(O)cc1 [Compound 70] | 5.43
CC(C)=CCOc1ccc(C(=O)/C=C/c2ccccc2OCC=C(C)C)c(OCC(=O)O)c1 [Compound 19] | 20.3
CCOC(=O)COc1ccccc1C(=O)C=Cc1ccco1 [Compound 65] | 78.4
CCOC(=O)CCCCCOc1ccccc1C(=O)C=Cc1cccc(F)c1 [Compound 39] | 0.05
CC(C)=CCOc1ccc(C(=O)/C=C/c2ccc(OCC=C(C)C)c(OCC=C(C)C)c2)c(OCC(=O)O)c1 [Compound 21] | 14.4
CC(C)=CCOc1ccc(C(=O)/C=C/c2ccc([N+](=O)[O-])cc2)c(OCC(=O)O)c1 [Compound 25] | 43.8
CC(=O)Nc1ccc(/C=C/C(=O)c2ccc(OCC=C(C)C)cc2OCC(=O)O)cc1 [Compound 26] | 15.7
COC(=O)COc1cc(OCc2ccc(OC)cc2)ccc1C(=O)C=Cc1ccc(OCc2ccc(OC)cc2)cc1 [Compound 87] | > 100
O=C(O)COc1ccccc1C(=O)C=Cc1ccco1 [Compound 56] | 72.2
O=C(O)CCCCCOc1ccccc1C(=O)CCc1ccccc1 [Compound 116] | 0.2
O=C(O)CCCCCOc1ccccc1C(=O)C=Cc1ccco1 [Compound 52] | 0.5
COC(=O)CCCOc1cc(OCC=C(C)C)ccc1C(=O)CCc1ccc(OCC=C(C)C)cc1 [Compound 73] | 10.7
CCOC(=O)CCCCCCOc1ccccc1C(=O)C=Cc1ccccc1 [Compound 104] | 13.5
CCOC(=O)COc1ccc(C=CC(=O)c2ccc(OCC(=O)OCC)cc2OCC(=O)OC)cc1 [Compound 83] | 8.62
O=C(O)COc1ccccc1C(=O)C=Cc1cccnc1 [Compound 60] | 29.3

SMILES | IC50 [µM]
O=C(O)COc1ccccc1C(=O)C=Cc1cccs1 [Compound 57] | 71.5
CCOC(=O)CCCCCOc1ccccc1C(=O)C=Cc1ccco1 [Compound 62] | 0.48
CC(C)=CCOc1ccc(C(=O)/C=C/c2ccc(Cl)cc2)c(OCC(=O)O)c1 [Compound 24] | 43.4
CCOC(=O)COc1ccccc1C(=O)C=Cc1ccccc1 [Compound 108] | 15.3
O=C(O)CCCCCOc1ccccc1C(=O)C=Cc1ccccc1 [Compound 36] | 0.19
CCOC(=O)CCCOc1cc(OCC=C(C)C)ccc1C(=O)C=Cc1cccs1 [Compound 64] | 5.87
CCOC(=O)COc1ccccc1C(=O)C=Cc1ccc(Br)s1 [Compound 67] | > 100
CC(C)=CCOc1ccc(C=CC(=O)c2ccccc2OCCCCC(=O)O)cc1 [Compound 102] | 2.42
O=C(O)CCCCCOc1ccccc1C(=O)C=Cc1ccccc1 [Compound 77] | 5.54
O=C(O)CCCCCOc1cc(F)ccc1C(=O)/C=C/c1ccccc1 [Compound 11] | 54.4
CC(C)=CCOc1ccc(C=CC(=O)c2ccc(OCC=C(C)C)cc2OCCCCCC(=O)O)cc1 [Compound 32] | 5.85
CC(C)=CCOc1ccc(C=CC(=O)c2ccc(OCC=C(C)C)cc2OCCCCC(=O)O)cc1 [Compound 37] | 0.23
CC(C)=CCOc1ccc(CCC(=O)c2ccc(OCC=C(C)C)cc2OCCCC(=O)O)cc1 [Compound 75] | 0.35
CCOC(=O)COc1cc(O)ccc1C(=O)C=Cc1ccc(Cl)cc1 [Compound 44] | > 100
COC(=O)COc1cc(OCC=C(C)C)ccc1C(=O)C=Cc1ccc(OCC=C(C)C)cc1 [Compound 68] | > 100
CCOC(=O)CCCCCOc1ccccc1C(=O)C=Cc1ccccc1F [Compound 38] | 0.03
CCOC(=O)COc1ccccc1C(=O)C=Cc1ccc(O)cc1 [Compound 47] | 35.2
